Results as given in ChEMBL document CHEMBL1201862, “PubChem BioAssay data set” (2004).
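Cells were grown in 96-well plates and exposed to each compound for 48 hours at five concentrations; endpoints were interpolated linearly between bracketing concentrations, or set to the highest concentration if not reached. GI50 is the concentration that inhibits growth by half.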 The source made the active and inactive calls. Rule as the data show it: active = GI50 up to about 1.1 µM and inactive = higher.

Experiments:
Assay in all cases: NCI-60 cell line screen, 48 h
RXF 393 = system: RXF 393
MCF7 = system: MCF7
A549 = system: A549
CCRF-CEM = system: CCRF-CEM
Malme-3M = system: Malme-3M
COLO 205 = system: COLO 205
U-251 = system: U-251
MOLT-4 = system: MOLT-4
M14 = system: M14
MDA-N = system: MDA-N
SK-OV-3 = system: SK-OV-3
ACHN = system: ACHN
SNB-75 = system: SNB-75
NCI-H23 = system: NCI-H23
OVCAR-3 = system: OVCAR-3
HT-29 = system: HT-29
SR = system: SR
A498 = system: A498
MDA-MB-435 = system: MDA-MB-435
HCT-116 = system: HCT-116
SNB-19 = system: SNB-19
NCI-H460 = system: NCI-H460
SK-MEL-5 = system: SK-MEL-5
LOX IMVI = system: LOX IMVI
UO-31 = system: UO-31
MDA-MB-231 = system: MDA-MB-231
HOP-62 = system: HOP-62
SK-MEL-2 = system: SK-MEL-2
K562 = system: K562
RPMI-8226 = system: RPMI-8226
DU-145 = system: DU-145
UACC-62 = system: UACC-62
EKVX = system: EKVX
NCI-H226 = system: NCI-H226
CAKI-1 = system: CAKI-1
PC-3 = system: PC-3
SF-268 = system: SF-268
SW-620 = system: SW-620
TK-10 = system: TK-10
SK-MEL-28 = system: SK-MEL-28
OVCAR-4 = system: OVCAR-4
BT-549 = system: BT-549
T47D = system: T47D
SF-539 = system: SF-539
OVCAR-8 = system: OVCAR-8
SN12C = system: SN12C
Hs-578T = system: Hs-578T
HCT-15 = system: HCT-15
786-0 = system: 786-0
NCI/ADR-RES = system: NCI/ADR-RES
IGROV-1 = system: IGROV-1
KM12 = system: KM12
SF-295 = system: SF-295
UACC-257 = system: UACC-257
OVCAR-5 = system: OVCAR-5
NCI-H522 = system: NCI-H522
HOP-92 = system: HOP-92
HL-60 = system: HL-60
HCC 2998 = system: HCC 2998

Measured: GI50

Cc1cccc(Cn2c3c(c4cc(O)ccc42)C(=O)c2ccccc2C3=O)c1
inactive: RXF 393 5.6 µM | MCF7 23.2 µM | A549 11.3 µM | CCRF-CEM 28.1 µM | Malme-3M 19.1 µM | COLO 205 > 78.2 µM | U-251 8.59 µM | MOLT-4 > 83.6 µM | M14 > 100 µM | MDA-N 68.4 µM | SK-OV-3 3.44 µM | ACHN 13.3 µM | SNB-75 1.97 µM | NCI-H23 15.4 µM | OVCAR-3 > 31.6 µM | HT-29 > 58.5 µM | SR 14.2 µM | A498 > 90.8 µM | MDA-MB-435 > 80.9 µM | HCT-116 3.05 µM | SNB-19 28 µM | NCI-H460 25.6 µM | SK-MEL-5 18.3 µM | LOX IMVI 12.6 µM | UO-31 > 54.2 µM | MDA-MB-231 6.35 µM | HOP-62 4.58 µM | SK-MEL-2 > 91.2 µM | K562 > 100 µM | RPMI-8226 5.92 µM | DU-145 > 100 µM | UACC-62 11.1 µM | EKVX 3.95 µM | NCI-H226 15.7 µM | CAKI-1 > 26.5 µM | PC-3 6.27 µM | SF-268 36.6 µM | SW-620 31 µM | TK-10 15.5 µM | SK-MEL-28 > 39.6 µM | OVCAR-4 1.88 µM | BT-549 24.3 µM | T47D > 100 µM | SF-539 5.7 µM | OVCAR-8 5.57 µM | SN12C > 61 µM | Hs-578T 24.4 µM | 786-0 3.86 µM | NCI/ADR-RES 6.84 µM | IGROV-1 5.13 µM | KM12 41.2 µM | SF-295 3.89 µM | UACC-257 > 100 µM
54.7 µM: HCT-15

N=C1/C(=C/c2ccco2)C(=O)N=C2SC=NN12
inactive: RXF 393 > 100 µM | MCF7 > 100 µM | A549 > 100 µM | CCRF-CEM > 100 µM | Malme-3M > 100 µM | COLO 205 > 100 µM | U-251 > 100 µM | MOLT-4 > 100 µM | M14 > 100 µM | MDA-N > 100 µM | SK-OV-3 > 100 µM | ACHN > 100 µM | SNB-75 99.1 µM | OVCAR-5 > 100 µM | NCI-H23 > 100 µM | OVCAR-3 > 100 µM | HT-29 > 100 µM | SR > 100 µM | MDA-MB-435 > 100 µM | HCT-116 > 100 µM | NCI-H522 > 100 µM | SNB-19 > 100 µM | NCI-H460 > 100 µM | SK-MEL-5 > 100 µM | LOX IMVI > 100 µM | UO-31 > 100 µM | MDA-MB-231 > 100 µM | HOP-62 > 100 µM | SK-MEL-2 > 100 µM | K562 > 100 µM | RPMI-8226 > 100 µM | DU-145 > 100 µM | UACC-62 > 100 µM | EKVX > 100 µM | NCI-H226 > 100 µM | CAKI-1 > 100 µM | PC-3 > 100 µM | SF-268 > 100 µM | SW-620 > 100 µM | HOP-92 > 100 µM | TK-10 > 100 µM | SK-MEL-28 > 100 µM | OVCAR-4 > 100 µM | BT-549 > 100 µM | T47D > 100 µM | SF-539 > 100 µM | HL-60 > 100 µM | OVCAR-8 > 100 µM | SN12C > 100 µM | Hs-578T > 100 µM | 786-0 > 100 µM | NCI/ADR-RES > 100 µM | IGROV-1 > 100 µM | KM12 > 100 µM | HCC 2998 > 100 µM | SF-295 > 100 µM | UACC-257 > 100 µM
> 100 µM: HCT-15
